Experimental data taken from patent US12655139B2, “Isoxazolidines as RIPK1 inhibitors and use thereof” (SANOFI, priority 2020, dated 2026).
Where a name gives a salt, the structure may show the parent alone. Read-outs that look alike come from different tables or passages of the source.

Key:
[1] = target: T1, hRIPK1 (aa 1-375) fusion protein (Homo sapiens, UniProt Q13546); assay: ADP-Glo kinase assay, RIPK1 autophosphorylation; type: biochemical
T1 construct: hRIPK1 (aa 1-375) fusion protein
T1 sequence (Q13546 1-375): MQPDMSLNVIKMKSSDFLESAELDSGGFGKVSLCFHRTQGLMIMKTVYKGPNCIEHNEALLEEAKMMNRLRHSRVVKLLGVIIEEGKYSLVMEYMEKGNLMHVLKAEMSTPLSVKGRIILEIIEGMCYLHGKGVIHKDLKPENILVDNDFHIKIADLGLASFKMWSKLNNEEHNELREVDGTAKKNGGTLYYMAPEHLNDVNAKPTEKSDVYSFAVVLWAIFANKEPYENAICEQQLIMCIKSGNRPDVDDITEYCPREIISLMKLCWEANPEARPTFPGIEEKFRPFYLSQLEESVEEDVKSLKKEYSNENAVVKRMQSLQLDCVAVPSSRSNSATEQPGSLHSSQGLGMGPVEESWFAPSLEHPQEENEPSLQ
Description: Evaluation of Receptor-Interacting Protein Kinase 1 Inhibition.
The catalytic activity of RIPK1 was measured by monitoring the conversion of Adenosine triphosphate (ATP) to Adenosine diphosphate (ADP) due to autophosphorylation using an ADP-Glo kinase kit (Promega, catalog no. V9104).
After another 240 minutes incubation at room temperature, 5 μl Promega ADP-Glo reagent I were added to quench the reaction and deplete unconsumed ATP. After an incubation period of 30 minutes, 10 μl Promega ADP-Glo detection reagent II were added resulting in conversion of ADP to ATP, which generates a light-reaction between luciferase and luciferin. Luminescence was quantified after 30 minutes with a Pherastar FS (BMG LABTECH, Ortenberg).
The adjustment was obtained by nonlinear regression using the Levenberg Marquardt algorithm.

U937 cells = assay: Cellular assay in U937 cells on cell death (necroptosis), TNFα/zVAD.fmk; type: cell-based
Excerpt: Cellular Assay in U937 Cells to Measure the Activity of RIPK1-Inhibitors on Cell Death (Necroptosis).
Cell death was quantified in 96 well plates by determination of the amount of live cell using a CellTiter 96 AQueous reagent (Promega), a calorimetric method to measure the amount of live cells by reducing tetrazolium compound [3-(4,5-dimethylthiazol-2-yl)-5-(3-carboxymethoxyphenyl)-2-(4-sulfophenyl)-2H-tetrazolium, inner salt; MTS] into formazan. Absorbance of formazan was read at 490 nm. The inhibitory activity of the test compound was quantified in a concentration response curve (CRC) experiment. Compounds were obtained as 10 mM stock solutions and were diluted 1 to 10 volumes with DMSO to yield a 1 mM solution. From this solution 2 μl were diluted with 998 μl growth medium. 100 μl of 2 μM compound solution was further diluted sequentially with a dilution factor of 2.5 by adding 150 μl growth medium. A total of 10 concentrations were tested ranging from 10 μM to 0.26 nM or from 1 μM to 0.07 nM.
U937 cells were cultured in RPMI1640 Glutamax and 10% heat inactivated FBS. 50 μl cell suspension containing 1×10^6 cells/ml supplemented with 50 μM zVAD.fmk (Benzyloxycarbonyl-Val-Ala-Asp (OMe) fluoromethylketone) and 100 ng/ml recombinant human TNFα were dispensed in each well of a 96-well plate. 50 μl of compound dilutions (see above) were added and the cell suspension incubated overnight (18 to 24 hours) at 37° C., 5% CO2 in a humidified atmosphere (95% rH). High (no compound) and low control (no TNFα, zVAD.fmk) were tested with 7 replicates; all compound concentrations were tested in duplicates on each experimental plate.
CellTiter 96 Aqueous reagent was mixed (100 μl PMS (phenazine methosulfate) solution/2 ml MTS (3-(4,5-[…])-5-(3-carboxymethoxyphenyl)-2-(4-sulfophenyl)-2H-tetrazolium, inner salt) solution) and 20 μl were added per well. After 4 hours incubation at 37° C. (5% CO2 95% rH) optical density was measured at 490 nm on a microplate reader (Tecan Infinite M1000).
The % inhibition is expressed as percentage of the maximal inhibition value obtained in the absence of TNFα/zVAD.fmc.

[2] = Homo sapiens, U-937, Table 2, read-out: U937 IC50

Row | IC50 ([1]; Table 1) [nM] | IC50 ([1]; Key compound table 4) [nM] | Compound | IC50 (U937 cells; Table 2, read-out: U937 IC50) [µM] | IC50 (U937 cells; [2]) [µM] | IC50 (U937 cells; Homo sapiens, U-937, Key compound table 4, read-out: U937 IC50 (uM) Mean) [µM]
1 | 12.2 | – | 2-[(3R,4R)-4-[(3S)-3-(5-cyano-3-pyridyl)isoxazolidine-2-carbonyl]-3-fluoro-1-piperidyl]pyrimidine-4-carboxamide and 2-[(3S,4S)-4-[(3S)-3-(5-cyano-3-pyridyl)isoxazolidine-2-carbonyl]-3-fluoro-1-piperidyl]pyrimidine-4-carboxamide [Ex. 092] | 0.0502 | – | –
2 | 26.3 | – | N#Cc1cncc([C@@H]2CCON2C(=O)C2(F)CCN(c3nccc(C#N)n3)CC2(F)F)c1 (mixture of isomers) [Ex. 123] | – | 0.0442 | –
3 | 797 | – | NC(=O)c1cc(N2CCC(C(=O)N3OCCC3C3CCCOC3)CC2)ncn1 (racemic) [Ex. 023*, 6-[4-[3-Tetrahydropyran-3-ylisoxazolidine-2-carbonyl]-1-piperidyl]pyrimidine-4-carboxamide TFA salt] | – | 4.67 | –
4 | 51.6 | – | NC(=O)c1ccnc(N2CCC(C(=O)N3OCCC3c3cncc(CO)c3)CC2)n1 (racemic) [Ex. 025*, 2-[4-[3-[5-(Hydroxymethyl)-3-pyridyl]isoxazolidine-2-carbonyl]-1-piperidyl]pyrimidine-4-carboxamide] | – | 0.498 | –
5 | 247 | – | NC(=O)c1cncc(C2CCON2C(=O)C2CCN(c3cc(C(N)=O)ncn3)CC2)c1 (racemic) [Ex. 030*] | – | 4.17 | –
6 | 51.5 | – | N#Cc1ccnc(N2CCC(C(=O)N3OCCC3c3cncc(CO)c3)CC2)n1 (racemic) [Ex. 031*] | – | 0.395 | –
7 | 180 | – | NC(=O)c1cc(N2CCC(C(=O)N3OCCC3c3cncc(CO)c3)CC2)ncn1 (racemic) [Ex. 032*, 6-[4-[3-[5-(Hydroxymethyl)-3-pyridyl]isoxazolidine-2-carbonyl]-1-piperidyl]pyrimidine-4-carboxamide TFA salt] | – | 2.44 | –
8 | 48.9 | – | NC(=O)c1ccnc(N2CCC(C(=O)N3OCCC3c3ccc(N)nc3)CC2)n1 (racemic) [Ex. 036*] | – | 0.198 | –
9 | 31.5 | – | N#Cc1ccnc(N2CCC(C(=O)N3OCCC3c3ccc(N)nc3)CC2)n1 (racemic) [Ex. 037*] | – | 0.177 | –
10 | 89.9 | – | NC(=O)c1cc(N2CCC(C(=O)N3OCC[C@H]3c3ccc(N)nc3)CC2)ncn1 (racemic) [Ex. 038*] | – | 1.71 | –
11 | 65.1 | – | Cn1cc(C2CCON2C(=O)C2CCN(c3nccc(C(N)=O)n3)CC2)cn1 (racemic) [Ex. 046*] | – | 0.605 | –
12 | 64.9 | – | Cn1cc(C2CCON2C(=O)C2CCN(c3nccc(C#N)n3)CC2)cn1 (racemic) [Ex. 047*] | – | 0.549 | –
13 | 33.2 | – | NC(=O)c1cc(N2CCC(C(=O)N3OCCC3c3cncc(F)c3)CC2)ncn1 (racemic) [Ex. 048*] | – | 0.133 | –
14 | 9.99 | – | N#Cc1cc(N2CCC(C(=O)N3OCCC3c3cncc(F)c3)CC2)ncn1 (racemic) [Ex. 049*] | – | 0.0411 | –
15 | 26.7 | – | NC(=O)c1ccnc(N2CCC(C(=O)N3OCCC3c3cncc(F)c3)CC2)n1 (racemic) [Ex. 050*] | – | 0.0329 | –
16 | 134 | – | COC(=O)c1ccnc(N2CCC(C(=O)N3OCCC3c3cncc(F)c3)CC2)n1 (racemic) [Ex. 051*, Methyl 2-[4-[3-(5-fluoro-3-pyridyl)isoxazolidine-2-carbonyl]-1-piperidyl]pyrimidine-4-carboxylate] | – | 0.678 | –
17 | 767 | – | O=C(O)c1ccnc(N2CCC(C(=O)N3OCCC3c3cncc(F)c3)CC2)n1 (racemic) [Ex. 054*] | – | > 10 | –

Row | IC50 ([1]; Table 1) [nM] | IC50 ([1]; Key compound table 4) [nM] | Compound | IC50 (U937 cells; Table 2, read-out: U937 IC50) [µM] | IC50 (U937 cells; [2]) [µM] | IC50 (U937 cells; Homo sapiens, U-937, Key compound table 4, read-out: U937 IC50 (uM) Mean) [µM]
18 | 64.9 | – | Cn1ccc(C2CCON2C(=O)C2CCN(c3nccc(C#N)n3)CC2)n1 (racemic) [Example 007, 2-[4-[3-(1-methylpyrazol-3-yl)isoxazolidine-2-carbonyl]-1-piperidyl] pyrimidine-4-carbonitrile] | – | 2.42 | –
19 | 729 | – | N#Cc1ccnc(N2CCC(C(=O)N3OCCC3c3ccc4nccn4c3)CC2)n1 (racemic) [Example 014, 2-[4-[3-imidazo[1,2-a]pyridin-6-ylisoxazolidine-2-carbonyl]-1-piperidyl] pyrimidine-4-carbonitrile TFA salt] | – | > 10 | –
20 | 13100 | – | NC(=O)c1cc(N2CCC(C(=O)N3OCCC3c3ccc4nccn4c3)CC2)ncn1 (racemic) [Example 015, 6-[4-[3-imidazo[1,2-a]pyridin-6-ylisoxazolidine-2-carbonyl]-1-piperidyl] pyrimidine-4-carboxamide TFA salt] | – | – | –
21 | 156 | – | NC(=O)c1ccnc(N2CCC(C(=O)N3OCCC3C3CCCOC3)CC2)n1 (racemic) [Example 024, 2-[4-[3-Tetrahydropyran-3-ylisoxazolidine-2-carbonyl]-1-piperidyl]pyrimidine-4-carboxamide] | – | 0.834 | –
22 | 193 | – | CNC(=O)c1cncc(C2CCON2C(=O)C2CCN(c3nccc(C#N)n3)CC2)c1 (racemic) [Example 042, 5-[2-[1-(4-cyanopyrimidin-2-yl)piperidine-4-carbonyl]isoxazolidin-3-yl]-N-methyl-pyridine-3-carboxamide] | – | 6.01 | –
23 | > 33000 | – | NC(=O)c1ccnc(N2CCC(C(=O)N3OCCC3c3cncc(F)c3)CC2)n1 (single isomer, unassigned) [Ex. 069] | – | > 10 | –
24 | 30.5 | – | N#Cc1cncc([C@@H]2CCON2C(=O)[C@@H]2CCN(c3nccc(C(N)=O)n3)C[C@@H]2F)c1 (single isomer, unassigned) [Ex. 095] | – | 0.12 | –
25 | 22 | – | Cc1ccc([C@@H]2CCON2C(=O)C2CCN(c3cc(C(N)=O)ncn3)CC2)s1 (single isomer, unassigned) [Ex. 176] | – | 0.00371 | –
26 | 297 | – | Cc1ccc(C2CCON2C(=O)C2CCN(c3ncc(C)c(C(N)=O)n3)CC2F)cn1 (single isomer, unassigned) [Ex. 185] | 1.15 | – | –
27 | 26 | – | N#Cc1cncc([C@@H]2CCON2C(=O)[C@H]2CCN(c3nccc(C(N)=O)n3)C[C@H]2F)c1 (single isomer, unassigned) [compound 96] | – | 0.204 | –
28 | 443 | – | N#Cc1cncc([C@@H]2CCON2C(=O)C2CCN(c3nccc(C(=O)O)n3)CC2)c1 (single isomer, unassigned) [compound 102] | – | > 10 | –
29 | 38.4 | – | Cc1ccc(C2CCON2C(=O)C2CCN(c3ncc(C)c(C(N)=O)n3)CC2F)cn1 (single isomer, unassigned) [compound 186] | 0.148 | – | –
30 | 32.6 | – | N#Cc1cncc([C@@H]2CCON2C(=O)C2CCN(c3cc(C(N)=O)ncn3)CC2)c1 [Ex. 001] | – | 0.133 | –
31 | – | 16 | N#Cc1cncc([C@@H]2CCON2C(=O)C2CCN(c3nccc(C(N)=O)n3)CC2)c1 [Ex. 004] | – | – | 0.022
32 | 4690 | – | N#Cc1cncc([C@@H]2CCON2C(=O)C2CCN(c3nccc(C(=O)O)n3)CC2)c1 [Ex. 009] | – | > 10 | –
33 | 18800 | – | N#Cc1cncc([C@H]2CCON2C(=O)C2CCN(c3nccc(C(N)=O)n3)CC2)c1 [Ex. 016] | – | – | –
34 | 24.5 | – | COC(=O)c1ccnc(N2CCC(C(=O)N3OCC[C@H]3c3cncc(C#N)c3)CC2)n1 [compound 100] | – | – | –
